Measurements reported in US11926619B2, “Certain pladienolide compounds and methods of use” (EISAI R&D MANAGEMENT CO., LTD., priority 2018, dated 2024).
Values belong to the molecule of their own block, whether it stands above or below them.

Experiments:
[1] = test system: WiDr cells (colon cancer cells; wildtype SF3B1); test: Cell viability assay (CellTiter-Glo, 72 hr), WiDr cells; assay type: cell-based; settings: Homo sapiens; WiDr cells (wildtype SF3B1); read-out: WiDr GI50
How it was run: (§1)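 Cells at 2000/well were exposed to 9 compound concentrations (0.1% DMSO) in duplicate or triplicate for 72 hr at 37 °C. ATP was read by CellTiter-Glo against a time-zero plate and DMSO control growth. Percent growth/viability was plotted against concentration to give Emax; negative values indicate lethality.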

[2] = test system: Panc 05.04 cells (pancreatic cancer cells; Q699H and K700E mutations in SF3B1); test: Cell viability assay (CellTiter-Glo, 72 hr), Panc 05.04 cells; assay type: cell-based; settings: Panc 05.04 cells (mutant SF3B1); for Emax: maximum achievable response in tested dose range, negative value = cellular lethality, read-out: Panc 05.04 (mt SF3B1 cells) Emax (%); for GI50: read-out: Panc 05.04 (mt SF3B1 cells), GI50
How it was run: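 Viability was read as ATP content (CellTiter-Glo) after 72 hr compound exposure of Panc 05.04 cells at 37 °C, nine concentrations, 0.1% DMSO. Percentage growth was referenced to time-zero and vehicle wells and plotted against concentration to obtain Emax; negative Emax denotes cell killing.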

SF3b complexes = target: T1, SF3b complexes (Homo sapiens, UniProt O75533+Q7RTV0); test: Scintillation proximity assay (SPA) with [3H]-labelled pladienolide probe; assay type: binding; settings: wt SF3B1, read-out: SPA (wt SF3B1 cells) IC50
T1 construct: endogenous in cells
How it was run: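 SF3b complexes immunoprecipitated from nuclear extracts with anti-SF3B1 antibody on anti-mouse PVT SPA beads. Beads pre-incubated 30 min with varying PB or PB-OH, then 2.5 nM [3H]-PB added for 30 min; scintillation signal read and fit by non-linear regression.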

[3] = test system: WiDr-R cells (colon cancer cells; chemically-induced SF3B1 R1074H mutant); test: Cell viability assay (CellTiter-Glo, 72 hr), resistant WiDr-R cells (counter-screen); assay type: cell-based; settings: WiDr-R cells (SF3B1 R1074H mutation, resistant); read-out: WiDr-R GI50
How it was run: as §1

Compound: C/C(=C\C=C\[C@@H](C)c1cccnc1)[C@H]1OC(=O)C[C@H](O)CC[C@@](C)(O)[C@@H](OC(=O)N2CCN(C3CCCCCC3)CC2)/C=C/[C@@H]1C
GI50 [1]: 13.2 nM
Emax [2]: -95.6%
GI50 [2]: 11 nM
IC50 (SF3b complexes): 2.34 nM
GI50 [3]: > 1000 nM

Compound: C/C(=C\C=C\[C@@H](C)COC(=O)N1CC[C@@H](O)C1)[C@H]1OC(=O)C[C@H](O)CC[C@@](C)(O)[C@@H](OC(=O)N2CCN(C3CCCCCC3)CC2)/C=C/[C@@H]1C
GI50 [1]: 5.56 nM
Emax [2]: -84.5%
GI50 [2]: 5.51 nM
IC50 (SF3b complexes): 7.66 nM
GI50 [3]: > 1000 nM

Compound: C/C(=C\C=C\[C@@H](C)CNC(=O)N1CCC[C@H]1CO)[C@H]1OC(=O)C[C@H](O)CC[C@@](C)(O)[C@@H](OC(=O)N2CCN(C3CCCCCC3)CC2)/C=C/[C@@H]1C
GI50 [1]: 95.9 nM
Emax [2]: -85%
GI50 [2]: 77.3 nM
IC50 (SF3b complexes): 40.8 nM
GI50 [3]: > 1000 nM

Compound: C/C(=C\C=C\C(C)c1cccnc1)[C@H]1OC(=O)C[C@H](O)CC[C@@](C)(O)[C@@H](OC(=O)N2CCN(C3CCCCCC3)CC2)/C=C/[C@@H]1C (stereo partly drawn)
GI50 [1]: 19.7 nM
Emax [2]: -95.4%
GI50 [2]: 10.4 nM
IC50 (SF3b complexes): 2.51 nM
GI50 [3]: > 1000 nM

Compound: C/C(=C\C=C\[C@@H](C)COC(=O)N1CCC[C@H]1CO)[C@H]1OC(=O)CCCC[C@@](C)(O)[C@@H](OC(=O)N2CCN(C)CC2)/C=C/[C@@H]1C
GI50 [1]: 1.74 nM
Emax [2]: -72.3%
GI50 [2]: 2.07 nM
IC50 (SF3b complexes): 2.54 nM
GI50 [3]: > 1000 nM

Compound: C/C(=C\C=C\[C@@H](C)c1ccccn1)[C@H]1OC(=O)C[C@H](O)CC[C@@](C)(O)[C@@H](OC(=O)N2CCCN(C3CCCCCC3)CC2)/C=C/[C@@H]1C
GI50 [1]: 74.9 nM
Emax [2]: -12.7%
GI50 [2]: 104 nM
IC50 (SF3b complexes): 7.32 nM
GI50 [3]: > 1000 nM

GI50 [1]: 65.5 nM
GI50 [2]: 54.7 nM
IC50 (SF3b complexes): 113 nM
Compound: C/C(=C\C=C\[C@@H](C)COC(=O)N1CCC[C@H]1CO)[C@H]1OC(=O)CCCCC[C@@H](OC(=O)N2CCN(CC(F)(F)F)CC2)/C=C/[C@@H]1C
Emax [2]: -85.6%
GI50 [3]: > 1000 nM

Compound: C/C(=C\C=C\[C@H](C)c1ncccn1)[C@H]1OC(=O)C[C@H](O)CC[C@@](C)(O)[C@@H](OC(=O)N2CCN(C3CCCCCC3)CC2)/C=C/[C@@H]1C
GI50 [1]: 38.1 nM
Emax [2]: -93.1%
GI50 [2]: 34.5 nM
IC50 (SF3b complexes): 6.57 nM
GI50 [3]: > 1000 nM

Compound: CCCNC(=O)OC[C@H](C)/C=C/C=C(\C)[C@H]1OC(=O)C[C@H](O)CC[C@@](C)(O)[C@@H](OC(C)=O)/C=C/[C@@H]1C
GI50 [1]: 1940 nM
Emax [2]: 40.5%
GI50 [2]: 4590 nM
IC50 (SF3b complexes): 473 nM
GI50 [3]: > 10000 nM

Compound: CC(=O)O[C@H]1/C=C/[C@H](C)[C@@H](/C(C)=C/C=C/[C@@H](C)COC(=O)N2CCCCC2)OC(=O)C[C@H](O)CC[C@@]1(C)O
GI50 [1]: 49.7 nM
Emax [2]: -74.6%
GI50 [2]: 82.2 nM
IC50 (SF3b complexes): 15 nM
GI50 [3]: > 10000 nM

Compound: C/C(=C\C=C\C(C)c1cc(C)ccn1)[C@H]1OC(=O)C[C@H](O)CC[C@@](C)(O)[C@@H](OC(=O)N2CCN(C3CCCCCC3)CC2)/C=C/[C@@H]1C (stereo partly drawn)
GI50 [1]: 58.7 nM
Emax [2]: -92.4%
GI50 [2]: 59.9 nM
IC50 (SF3b complexes): 6.79 nM
GI50 [3]: > 1000 nM

Compound: C/C(=C\C=C\[C@@H](C)c1ccccn1)[C@H]1OC(=O)C[C@H](O)CC[C@@](C)(O)[C@@H](OC(=O)N2CCNCC2)/C=C/[C@@H]1C
GI50 [1]: 16 nM
Emax [2]: -76.5%
GI50 [2]: 39.5 nM
IC50 (SF3b complexes): 26.9 nM
GI50 [3]: > 1000 nM

Compound: C/C(=C\C=C\[C@@H](C)COC(=O)N1CCCC12COC2)[C@H]1OC(=O)C[C@H](O)CC[C@@](C)(O)[C@@H](OC(=O)N2CCN(C)CC2)/C=C/[C@@H]1C
GI50 [1]: 47.2 nM
Emax [2]: 90.7%
GI50 [2]: 31.5 nM
IC50 (SF3b complexes): 9.56 nM
GI50 [3]: > 1000 nM

Compound: C/C(=C\C=C\[C@@H](C)CCC(=O)N1CCCC1)[C@H]1OC(=O)C[C@H](O)CC[C@@](C)(O)[C@@H](OC(=O)N2CCN(C)CC2)/C=C/[C@@H]1C
GI50 [1]: 26.4 nM
Emax [2]: -87.3%
GI50 [2]: 27.3 nM
IC50 (SF3b complexes): 4.36 nM
GI50 [3]: > 1000 nM

Compound: C/C(=C\C=C\[C@@H](C)COC(=O)N1CCCC1)[C@H]1OC(=O)C[C@@H](O)CC[C@](C)(O)[C@@H](OC(=O)N2CCN(C)CC2)/C=C/[C@@H]1C
GI50 [1]: 15.2 nM
Emax [2]: -90.2%
GI50 [2]: 6.55 nM
IC50 (SF3b complexes): 47.8 nM
GI50 [3]: > 1000 nM
